Experiment: Surface tension of surfactant added at 0.5% by mass to CTFA (plate method, 25° C.)
Type: physicochemical
Details: neat CTFA
Description: In the present disclosure, the “polymerizable surfactant” refers to a surfactant having a polymerizable group. In the present disclosure, the “surfactant” refers to a compound in which, in a case of adding the compound in an addition amount of 0.5% by mass with respect to cyclic trimethylolpropane formal acrylate (hereinafter, referred to as “CTFA”), a surface tension is reduced 1 mN/m or more. The surface tension is measured by a plate method at 25° C. using a surface tension meter, and for example, can be measured using an automatic surface tension meter (product name “DY-300”) manufactured by Kyowa Interface Science Co., Ltd. A surface tension of CTFA is 36.5 mN/m. […]
With regard to a product in which the content of the surfactant is not 100% by mass (for example, a product containing a solvent other than the surfactant), the content of the surfactant is adjusted to 100% by mass, and the surface tension is measured using the surfactant alone. […]
In Tables 1 to 10, “Polyfunctional monomer/polymerizable surfactant” indicates the mass ratio of the content of the polyfunctional monomer to the content of the polymerizable surfactant. […] The surface tension reduction relative to CTFA was calculated based on the following expression.

In the case of C=CC(=O)OCC1(CC)COCOC1 [CTFA, cyclic trimethylolpropane formal acrylate], the “Surface tension of CTFA” value is reported as 36.5 mN/m.

Experiment: Specific gravity of polymerizable monomer (gravimeter)
Type: physicochemical
Details: not given
Description: Among these, the polymerizable monomer preferably includes a polymerizable monomer having a specific gravity of 1.0 or less.
In the present disclosure, the specific gravity is measured using a gravimeter, for example, a high precision electronic gravimeter (model number “EW-300SG”, manufactured by Alfa Mirage).

C=CC(=O)OCC1(CC)COCOC1 [CTFA, cyclic trimethylolpropane formal acrylate] and C=CC(=O)OC1CCCCC1 [Cyclohexyl acrylate] are within 1.5-fold of each other in Specific gravity: 1.09 g/mL for the first, 0.98 g/mL for the second.

C=CC(=O)OCCCCCCCCCCOC(=O)C=C [Decanediol diacrylate] and C=CC(=O)OCCC(C)CCOC(=O)C=C [Example 3MPDDA] are within 1.5-fold of each other in Specific gravity: 0.968 g/mL for the first, 1.03 g/mL for the second.

C=CC(=O)OCCCCO [Example 4-HBA] and C=CC(=O)O[C@@H]1C[C@H]2CC[C@]1(C)C2(C)C [Isobornyl acrylate] are within 1.5-fold of each other in Specific gravity: 1.04 g/mL for the first, 0.987 g/mL for the second.

C=CC(=O)OCCCCCCCC(C)C [Isodecyl acrylate] and C=CC(=O)OCCCCCCC(C)C [Isononyl acrylate] are within 1.5-fold of each other in Specific gravity: 0.88 g/mL for the first, 0.885 g/mL for the second.

C=CC(=O)OCCCCCCCCCCCCCCCC(C)C [Isostearyl acrylate] and C=CC(=O)OCCCCCCCCCCCC [Lauryl acrylate] are within 1.5-fold of each other in Specific gravity: 0.871 g/mL for the first, 0.875 g/mL for the second.

C=CC(=O)N(C)C [N,N-Dimethylacrylamide] and C=CC(=O)NC(C)C [N-Isopropyl acrylamide] are within 1.5-fold of each other in Specific gravity: 0.964 g/mL for the first, 0.89 g/mL for the second.

C=CC(=O)OCCCCCCCCC [Nonyl acrylate] and C=CC(=O)OCCCCCCCCCCCCCCCCCC [Stearyl acrylate] are within 1.5-fold of each other in Specific gravity: 0.875 g/mL for the first, 0.86 g/mL for the second.

C=CC(=O)OCCOCCOCCOC(=O)C=C [TEGDA] and C=COCCOCCOCCOC=C [Triethylene glycol divinyl ether] are within 1.5-fold of each other in Specific gravity: 1.05 g/mL for the first, 1.00 g/mL for the second.

C=CC(=O)OCCCCCCCC [n-Octyl acrylate] and Tricyclohexyl acrylate are within 1.5-fold of each other in Specific gravity: 0.894 g/mL for the first, 0.93 g/mL for the second.

For t-Butylcyclohexyl acrylate, the Specific gravity was 0.941 g/mL.

Same assay, conditions: listed as DDDA

Work on C=CC(=O)OCCCCCCCCCCOC(=O)C=C [Decanediol diacrylate] yielded a Specific gravity of 0.97 g/mL.

Reference: patent US20240043706A1, “ACTIVE ENERGY RAY-CURABLE INKJET INK FOR BEVERAGE CONTAINER, ACTIVE ENERGY RAY-CURABLE INKJET INK SET, AND IMAGE RECORDING METHOD” (FUJIFILM CORPORATION, priority 2021, published 2024)
